Laboratory results from patent publication US20050019424A1, “Anti-angiogenesis combination therapies comprising pyridazine or pyridine derivatives” (priority 2001, published 2005).

Key:
CYP2D6 = CYP2D6 (Homo sapiens, UniProt P10635); assay: biochemical
Procedure: (§1) The ability of the compounds described herein to inhibit cytochrome P450 activity was determined in vitro using cDNA-expressed human cytochrome P450 enzymes (Supersomes) obtained from GENTEST Corporation and various fluorescent probe substrates. Fluorometric Cytochrome P450 Inhibition assays were conducted in 96 well micotitre plates as described by GENTEST Corporation, Woburn Mass. […] Compounds were dissolved in 70% DMSO such that the concentration of DMSO in the assay was 0.7%. Varying concentrations of all test compounds (10 μM, 3 μM, 1 μM, 300 nM and 100 nM) were incubated with Supersomes individually expressing the five principal drug metabolizing cytochrome P450s, CYP1A2, 2C9, 2C19, 2D6, and 3A4 and their respective substrates. […] Incubations with known inhibitors of each P450 isoform were included as positive controls. Fluorescence per well was measured using a Spectramax Gemini XS (Molecular Devices) and IC50 values of the compounds tested were determined using the 5 point dose response. The sigmoidal dose response curves were generated by non linear regression using a four parameter logistic equation.

CYP2C9 = biological target: T1, CYP2C9 (Homo sapiens, UniProt P11712); assay: Fluorometric cytochrome P450 inhibition assay, CYP2C9; assay type: in vitro ADME; settings: cDNA-expressed human CYP2C9 Supersomes, substrate DBF, 5 point dose response; read-out: CYP2C9 Inh. IC50
T1 construct: purchased GENTEST Corporation P258
Procedure: The ability of the compounds described herein to inhibit cytochrome P450 activity was determined in vitro using cDNA-expressed human cytochrome P450 enzymes (Supersomes) obtained from GENTEST Corporation and various fluorescent probe substrates. Fluorometric Cytochrome P450 Inhibition assays were conducted in 96 well micotitre plates as described by GENTEST Corporation, Woburn Mass. […] Compounds were dissolved in 70% DMSO such that the concentration of DMSO in the assay was 0.7%. […] Incubations with known inhibitors of each P450 isoform were included as positive controls. Fluorescence per well was measured using a Spectramax Gemini XS (Molecular Devices) and IC50 values of the compounds tested were determined using the 5 point dose response. The sigmoidal dose response curves were generated by non linear regression using a four parameter logistic equation.

CYP1A2 = biological target: T2, CYP1A2 (Homo sapiens, UniProt P05177); assay: biochemical
T2 sequence (P05177 1-516): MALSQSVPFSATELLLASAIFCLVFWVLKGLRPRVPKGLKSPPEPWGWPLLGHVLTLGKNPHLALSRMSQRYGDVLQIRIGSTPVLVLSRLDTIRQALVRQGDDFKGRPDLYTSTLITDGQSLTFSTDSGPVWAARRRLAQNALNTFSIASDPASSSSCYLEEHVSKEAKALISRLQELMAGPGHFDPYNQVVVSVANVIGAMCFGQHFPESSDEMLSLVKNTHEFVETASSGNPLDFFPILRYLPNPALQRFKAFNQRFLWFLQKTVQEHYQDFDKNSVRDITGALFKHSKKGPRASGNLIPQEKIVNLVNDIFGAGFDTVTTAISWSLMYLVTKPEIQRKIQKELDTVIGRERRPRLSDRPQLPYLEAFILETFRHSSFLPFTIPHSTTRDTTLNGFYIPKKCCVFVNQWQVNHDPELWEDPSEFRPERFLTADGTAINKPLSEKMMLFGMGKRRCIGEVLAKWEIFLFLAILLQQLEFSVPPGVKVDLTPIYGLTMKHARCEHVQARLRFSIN
Procedure: as §1

CYP2C19 = CYP2C19 (Homo sapiens, UniProt P33261); assay: biochemical
Procedure: as §1

CYP3A4 = CYP3A4 (Homo sapiens, UniProt P08684); assay: biochemical
CYP3A4, sequence (P08684 whole entry): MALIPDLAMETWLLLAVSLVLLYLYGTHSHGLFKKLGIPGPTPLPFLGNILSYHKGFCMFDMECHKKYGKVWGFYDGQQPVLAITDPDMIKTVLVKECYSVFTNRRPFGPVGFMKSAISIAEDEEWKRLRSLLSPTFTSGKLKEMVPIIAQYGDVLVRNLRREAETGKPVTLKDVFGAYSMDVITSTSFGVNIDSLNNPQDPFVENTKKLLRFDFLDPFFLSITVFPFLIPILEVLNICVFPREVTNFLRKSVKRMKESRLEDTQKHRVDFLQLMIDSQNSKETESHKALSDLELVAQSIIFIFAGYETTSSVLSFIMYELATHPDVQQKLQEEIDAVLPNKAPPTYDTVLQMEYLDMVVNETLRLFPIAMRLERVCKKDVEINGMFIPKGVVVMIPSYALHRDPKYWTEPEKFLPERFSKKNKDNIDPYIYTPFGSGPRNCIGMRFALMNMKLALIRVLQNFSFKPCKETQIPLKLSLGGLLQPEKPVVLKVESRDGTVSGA
Procedure: as §1

CYP2C19, sequence (P33261 whole entry): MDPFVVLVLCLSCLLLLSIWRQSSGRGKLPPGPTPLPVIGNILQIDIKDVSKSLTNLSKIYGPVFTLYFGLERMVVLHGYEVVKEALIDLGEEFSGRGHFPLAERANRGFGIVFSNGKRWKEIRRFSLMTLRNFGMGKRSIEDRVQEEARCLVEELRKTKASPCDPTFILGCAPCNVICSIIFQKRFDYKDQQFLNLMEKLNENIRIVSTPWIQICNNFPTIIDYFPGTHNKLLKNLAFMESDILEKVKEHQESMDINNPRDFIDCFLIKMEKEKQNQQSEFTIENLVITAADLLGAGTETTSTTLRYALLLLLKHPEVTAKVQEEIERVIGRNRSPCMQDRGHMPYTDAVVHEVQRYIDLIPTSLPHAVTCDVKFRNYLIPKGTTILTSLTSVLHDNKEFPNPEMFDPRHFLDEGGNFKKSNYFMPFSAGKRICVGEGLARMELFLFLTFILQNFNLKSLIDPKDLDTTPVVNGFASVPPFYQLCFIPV
CYP2D6, sequence (P10635 whole entry): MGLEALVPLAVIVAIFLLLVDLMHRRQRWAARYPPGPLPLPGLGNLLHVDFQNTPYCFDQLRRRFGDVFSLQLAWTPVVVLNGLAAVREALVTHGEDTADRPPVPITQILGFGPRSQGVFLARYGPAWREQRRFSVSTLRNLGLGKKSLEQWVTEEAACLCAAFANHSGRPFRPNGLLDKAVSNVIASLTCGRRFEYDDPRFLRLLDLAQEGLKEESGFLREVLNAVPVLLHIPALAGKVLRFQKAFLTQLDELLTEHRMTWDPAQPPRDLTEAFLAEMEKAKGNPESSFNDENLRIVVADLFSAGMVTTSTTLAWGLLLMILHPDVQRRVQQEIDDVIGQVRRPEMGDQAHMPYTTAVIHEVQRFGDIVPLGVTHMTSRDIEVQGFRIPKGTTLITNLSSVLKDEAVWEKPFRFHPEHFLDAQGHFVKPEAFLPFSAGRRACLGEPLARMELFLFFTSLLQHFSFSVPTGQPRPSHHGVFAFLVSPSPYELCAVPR
T1 sequence (P11712 whole entry): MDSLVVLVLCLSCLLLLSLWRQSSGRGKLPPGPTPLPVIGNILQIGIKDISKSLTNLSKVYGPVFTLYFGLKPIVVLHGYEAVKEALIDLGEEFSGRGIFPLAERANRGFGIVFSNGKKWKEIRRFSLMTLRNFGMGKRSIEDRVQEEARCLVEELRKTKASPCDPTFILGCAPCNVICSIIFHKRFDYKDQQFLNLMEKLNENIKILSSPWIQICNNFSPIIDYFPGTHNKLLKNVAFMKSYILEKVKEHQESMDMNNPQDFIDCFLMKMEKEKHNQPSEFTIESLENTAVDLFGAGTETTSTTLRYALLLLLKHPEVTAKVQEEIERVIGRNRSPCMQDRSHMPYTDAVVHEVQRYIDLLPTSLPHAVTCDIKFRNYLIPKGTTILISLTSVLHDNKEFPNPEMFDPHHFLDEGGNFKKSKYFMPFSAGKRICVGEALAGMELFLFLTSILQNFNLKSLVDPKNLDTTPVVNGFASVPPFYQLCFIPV

CNC(=O)c1cc(COC2=NN=C(Nc3ccc(Cl)cc3)C3C=COC23)ccn1 (stereo not shown)
IC50 (CYP2D6): > 20 µM | IC50 (CYP2C9): > 20 µM | IC50 (CYP1A2): > 20 µM | IC50 (CYP2C19): > 20 µM | IC50 (CYP3A4): 19 µM

CNC(=O)c1cc(COc2nnc(Nc3ccc4c(c3)OCC4)c3ccoc23)ccn1
IC50 (CYP2D6): > 20 µM | IC50 (CYP2C9): > 20 µM | IC50 (CYP1A2): 11 µM | IC50 (CYP2C19): > 20 µM | IC50 (CYP3A4): 7.6 µM

CNC(=O)c1cc(COC2=NN=C(Nc3ccc(Cl)cc3)C3C=CSC23)ccn1 (stereo not shown)
IC50 (CYP2D6): > 20 µM | IC50 (CYP2C9): > 20 µM | IC50 (CYP1A2): > 20 µM | IC50 (CYP2C19): > 20 µM | IC50 (CYP3A4): > 20 µM

NC(=O)c1cc(COC2=NN=C(Nc3ccc(Cl)cc3)C3C=CSC23)ccn1 (stereo not shown)
IC50 (CYP2D6): 14 µM | IC50 (CYP2C9): 4.7 µM | IC50 (CYP1A2): 3.3 µM | IC50 (CYP2C19): > 20 µM | IC50 (CYP3A4): 1 µM

CNC(=O)c1cc(COc2nnc(Nc3ccc(Cl)cc3)c3ccccc23)ccn1
IC50 (CYP2D6): > 20 µM | IC50 (CYP2C9): > 20 µM | IC50 (CYP1A2): > 20 µM | IC50 (CYP2C19): > 20 µM | IC50 (CYP3A4): > 20 µM

NC(=O)c1cc(COc2nnc(Nc3ccc(Cl)cc3)c3ccccc23)ccn1
IC50 (CYP2D6): 1.3 µM | IC50 (CYP2C9): 0.95 µM | IC50 (CYP1A2): 1.5 µM | IC50 (CYP2C19): 5.4 µM | IC50 (CYP3A4): 0.42 µM

NC(=O)c1cc(COC2=NN=C(Nc3ccc(Cl)cc3)C3C=COC23)ccn1 (stereo not shown)
IC50 (CYP2D6): > 20 µM | IC50 (CYP2C9): > 20 µM | IC50 (CYP1A2): 17 µM | IC50 (CYP2C19): > 20 µM | IC50 (CYP3A4): 2.1 µM

NC(=O)c1cc(Cc2cnc(Nc3ccc(Cl)cc3)c3ccccc23)ccn1
IC50 (CYP2D6): 15 µM | IC50 (CYP2C9): 1.9 µM | IC50 (CYP1A2): 3.3 µM | IC50 (CYP2C19): 1.2 µM | IC50 (CYP3A4): 1.2 µM

Clc1ccc(Nc2ncc(Cc3ccncc3)c3ccccc23)cc1
IC50 (CYP2D6): 0.21 µM | IC50 (CYP2C9): 0.11 µM | IC50 (CYP1A2): 0.17 µM | IC50 (CYP2C19): 0.07 µM | IC50 (CYP3A4): 0.14 µM

Clc1ccc(NC2=NN=C(OCc3ccncc3)C3SC=CC23)cc1 (stereo not shown)
IC50 (CYP2D6): 0.4 µM | IC50 (CYP2C9): 0.46 µM | IC50 (CYP1A2): 0.5 µM | IC50 (CYP2C19): 7.5 µM | IC50 (CYP3A4): 0.12 µM

O=C(NC1CC1)c1cc(COC2=NN=C(Nc3ccc(Cl)cc3)C3C=COC23)ccn1 (stereo not shown)
IC50 (CYP2D6): > 20 µM | IC50 (CYP2C9): > 20 µM | IC50 (CYP1A2): > 20 µM | IC50 (CYP2C19): > 20 µM | IC50 (CYP3A4): 3.3 µM

Clc1ccc(Nc2nnc(OCc3ccncc3)c3ccccc23)cc1 [WO 98/35958 (Example 50), reference compound]
IC50 (CYP2D6): 0.33 µM | IC50 (CYP2C9): 0.29 µM | IC50 (CYP1A2): 0.24 µM | IC50 (CYP2C19): 0.79 µM | IC50 (CYP3A4): 0.07 µM

CNC(=O)c1cc(COc2nnc(Nc3cccc(C)c3)c3ccsc23)ccn1
IC50 (CYP2D6): > 20 µM | IC50 (CYP2C9): > 20 µM | IC50 (CYP1A2): > 20 µM | IC50 (CYP3A4): > 20 µM

CNC(=O)c1cc(COc2nnc(Nc3ccc(F)cc3)c3ccoc23)ccn1
IC50 (CYP2D6): > 20 µM | IC50 (CYP2C9): > 20 µM | IC50 (CYP1A2): > 20 µM | IC50 (CYP3A4): > 20 µM

Clc1ccc(Nc2nnc(Cc3ccncc3)c3ccccc23)cc1 [WO 98/35958 (Example 4), reference compound]
IC50 (CYP2D6): 0.33 µM | IC50 (CYP2C9): 0.65 µM | IC50 (CYP1A2): 1.49 µM | IC50 (CYP2C19): 0.24 µM

Clc1ccc(NC2=NN=C(OCc3ccncc3)C3OC=CC23)cc1 (stereo not shown)
IC50 (CYP2D6): 0.78 µM | IC50 (CYP2C9): 0.68 µM | IC50 (CYP1A2): 0.66 µM | IC50 (CYP2C19): 1.7 µM | IC50 (CYP3A4): 0.39 µM

CNC(=O)c1cc(Cc2cnc(Nc3ccc(Cl)cc3)c3ccccc23)ccn1
IC50 (CYP2D6): 10 µM | IC50 (CYP2C9): 1.6 µM | IC50 (CYP1A2): 3.8 µM | IC50 (CYP2C19): 0.85 µM | IC50 (CYP3A4): 1.3 µM

CN(C)C(=O)c1cc(COC2=NN=C(Nc3ccc(Cl)cc3)C3C=COC23)ccn1 (stereo not shown)
IC50 (CYP2D6): > 20 µM | IC50 (CYP2C9): > 20 µM | IC50 (CYP1A2): 3.5 µM | IC50 (CYP2C19): > 20 µM | IC50 (CYP3A4): 11 µM

NC(=O)c1cc(Cc2nnc(Nc3ccc(Cl)cc3)c3ccccc23)ccn1
IC50 (CYP2D6): > 20 µM | IC50 (CYP2C9): > 20 µM | IC50 (CYP1A2): > 20 µM | IC50 (CYP2C19): 15 µM | IC50 (CYP3A4): 10 µM

CNC(=O)c1cc(COc2nnc(Nc3ccc4c(c3)CCC4)c3ccoc23)ccn1
IC50 (CYP2D6): > 20 µM | IC50 (CYP2C9): 4 µM | IC50 (CYP1A2): 4.5 µM | IC50 (CYP2C19): > 20 µM | IC50 (CYP3A4): 0.48 µM

CNC(=O)c1cc(COc2nnc(Nc3ccc(OC)cc3)c3ccoc23)ccn1
IC50 (CYP2D6): > 20 µM | IC50 (CYP2C9): > 20 µM | IC50 (CYP1A2): 4.2 µM | IC50 (CYP2C19): > 20 µM | IC50 (CYP3A4): 1.8 µM

CNC(=O)c1cc(Cc2nnc(Nc3ccc(Cl)cc3)c3ccccc23)ccn1
IC50 (CYP2D6): > 20 µM | IC50 (CYP2C9): 5.7 µM | IC50 (CYP1A2): > 20 µM | IC50 (CYP2C19): 11 µM | IC50 (CYP3A4): 2.2 µM

Clc1ccc(Nc2nnc(Nc3ccc4ncsc4c3)c3sccc23)cc1
IC50 (CYP2D6): > 20 µM | IC50 (CYP2C9): 3.9 µM | IC50 (CYP1A2): > 20 µM | IC50 (CYP2C19): 9.9 µM | IC50 (CYP3A4): > 20 µM
